Reference: patent US20220259193A1, “KCNT1 INHIBITORS AND METHODS OF USE” (Praxis Precision Medicines, Inc., priority 2019, published 2022)

target: T1, KCNT1 (KNa1.1, Slack) (Homo sapiens, UniProt Q5JUK3); assay: KCNT1 patch clamp assay (SyncroPatch 384PE automated patch clamp); assay type: cell-based; details: tetracycline inducible HEK-TREX cell line; perforated patch; step from −80 mV to 0 mV; room temperature; read-out: KCNT1-WT IC50
T1 construct: expressed in transfected cells; host or cells: HEK-TREX (tetracycline-inducible HEK cell line)
T1 sequence (Q5JUK3 1-1230): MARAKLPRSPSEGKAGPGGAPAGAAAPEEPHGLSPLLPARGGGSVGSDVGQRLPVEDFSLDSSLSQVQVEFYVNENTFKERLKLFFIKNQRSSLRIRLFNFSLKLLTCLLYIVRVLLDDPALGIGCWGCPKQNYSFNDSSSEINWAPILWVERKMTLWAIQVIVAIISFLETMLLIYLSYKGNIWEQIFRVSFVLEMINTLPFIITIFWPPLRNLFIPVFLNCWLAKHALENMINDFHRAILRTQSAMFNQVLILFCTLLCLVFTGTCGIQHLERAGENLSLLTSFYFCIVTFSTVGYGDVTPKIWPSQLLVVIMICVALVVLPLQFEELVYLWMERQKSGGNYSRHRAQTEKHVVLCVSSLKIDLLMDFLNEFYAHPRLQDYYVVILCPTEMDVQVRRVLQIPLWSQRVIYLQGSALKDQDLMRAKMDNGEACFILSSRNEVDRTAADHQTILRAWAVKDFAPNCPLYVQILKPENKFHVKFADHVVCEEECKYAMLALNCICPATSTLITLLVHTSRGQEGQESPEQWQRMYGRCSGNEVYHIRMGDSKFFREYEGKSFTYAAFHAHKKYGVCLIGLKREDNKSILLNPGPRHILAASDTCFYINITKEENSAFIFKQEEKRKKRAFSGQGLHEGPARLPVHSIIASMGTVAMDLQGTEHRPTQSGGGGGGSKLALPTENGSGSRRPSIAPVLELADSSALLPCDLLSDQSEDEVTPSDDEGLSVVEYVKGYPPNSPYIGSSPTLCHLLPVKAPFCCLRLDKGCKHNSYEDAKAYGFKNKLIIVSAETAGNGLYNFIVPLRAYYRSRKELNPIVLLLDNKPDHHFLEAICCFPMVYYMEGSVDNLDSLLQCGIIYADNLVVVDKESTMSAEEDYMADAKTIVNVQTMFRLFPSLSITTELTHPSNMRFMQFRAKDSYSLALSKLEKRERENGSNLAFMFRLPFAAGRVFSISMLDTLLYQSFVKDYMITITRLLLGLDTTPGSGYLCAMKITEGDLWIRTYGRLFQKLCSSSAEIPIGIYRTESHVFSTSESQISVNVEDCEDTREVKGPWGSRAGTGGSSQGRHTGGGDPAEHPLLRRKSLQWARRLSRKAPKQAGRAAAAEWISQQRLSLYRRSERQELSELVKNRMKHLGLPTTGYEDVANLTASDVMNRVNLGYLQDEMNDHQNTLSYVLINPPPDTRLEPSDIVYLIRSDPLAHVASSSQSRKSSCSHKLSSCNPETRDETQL
Summary of the method: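 Tetracycline-inducible HEK-TREX cells; perforated-patch (10 μM escin) population recordings at room temperature, holding −80 mV with 100 ms step to 0 mV.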

IC50 | SMILES
≥ 20000 nM | COCc1cc(-c2noc([C@H](C)NC(=O)OC(C)(C)C)n2)ccn1 [Compound 289, tert-butyl (S)-(1-(3-(2-(methoxymethyl)pyridin-4-yl)-1,2,4-oxadiazol-5-yl)ethyl)carbamate]
≤ 1000 nM | CCOc1cc(-c2noc([C@H](C)NC(=O)OC(C)(C)C)n2)ccn1 [Compound 290, tert-butyl (S)-(1-(3-(2-ethoxypyridin-4-yl)-1,2,4-oxadiazol-5-yl)ethyl)carbamate]
1000 to 20000 nM | C[C@H](NC(=O)OC(C)(C)C)c1nc(-c2ccnc(C(F)F)c2)no1 [Compound 291, tert-butyl (S)-(1-(3-(2-(difluoromethyl)pyridin-4-yl)-1,2,4-oxadiazol-5-yl)ethyl)carbamate]
1000 to 20000 nM | C[C@H](NC(=O)OC(C)(C)C)c1nc(-c2ccnc(OC3CC3)c2)no1 [Compound 292, tert-butyl (S)-(1-(3-(2-cyclopropoxypyridin-4-yl)-1,2,4-oxadiazol-5-yl)ethyl)carbamate]
1000 to 20000 nM | C[C@H](NC(=O)OC(C)(C)C)c1nc(-c2ccnc(OCC(F)F)c2)no1 [Compound 294, tert-butyl (S)-(1-(3-(2-(2,2-difluoroethoxy)pyridin-4-yl)-1,2,4-oxadiazol-5-yl)ethyl)carbamate]
≤ 1000 nM | C[C@H](NC(=O)OC(C)(C)C)c1nc(-c2ccnc(C(F)(F)F)c2)no1 [Compound 295, tert-butyl (S)-(1-(3-(2-(trifluoromethyl)pyridin-4-yl)-1,2,4-oxadiazol-5-yl)ethyl)carbamate]
1000 to 20000 nM | C[C@@H](NC(=O)OC(C)(C)C)c1nc(-c2ccnc(C(F)(F)F)c2)no1 [Compound 296, tert-butyl (R)-(1-(3-(2-(trifluoromethyl)pyridin-4-yl)-1,2,4-oxadiazol-5-yl)ethyl)carbamate]
≥ 20000 nM | CC[C@H](NC(=O)c1cc(C)n(-c2cccnc2)n1)c1nc(-c2ccnc(C)c2)no1 [Compound 299, (S)-5-methyl-N-(1-(3-(2-methylpyridin-4-yl)-1,2,4-oxadiazol-5-yl)propyl)-1-(pyridin-3-yl)-1H-pyrazole-3-carboxamide]
≤ 1000 nM | Cn1nc(C(F)(F)F)cc1C(=O)NCc1nc(-c2ccnc(C(F)(F)F)c2)no1 [Compound 300, 2-methyl-5-(trifluoromethyl)-N-[[3-[2-(trifluoromethyl)-4-pyridyl]-1,2,4-oxadiazol-5-yl]methyl]pyrazole-3-carboxamide]
≤ 1000 nM | Cn1nc(C(F)(F)F)cc1C(=O)NCc1nc(-c2ccnc(C3CC3)c2)no1 [Compound 301, N-[[3-(2-cyclopropyl-4-pyridyl)-1,2,4-oxadiazol-5-yl]methyl]-2-methyl-5-(trifluoromethyl)pyrazole-3-carboxamide]
≤ 1000 nM | CN(Cc1nc(-c2ccnc(C3CC3)c2)no1)C(=O)c1cc(C(F)(F)F)nn1C [Compound 302, N-[[3-(2-cyclopropyl-4-pyridyl)-1,2,4-oxadiazol-5-yl]methyl]-N,2-dimethyl-5-(trifluoromethyl)pyrazole-3-carboxamide]
≤ 1000 nM | C[C@H](NC(=O)c1ccnn1C1CCC1)c1nc(-c2ccnc(C3CC3)c2)no1 [Compound 304, 2-cyclobutyl-N-[(1S)-1-[3-(2-cyclopropyl-4-pyridyl)-1,2,4-oxadiazol-5-yl]ethyl]pyrazole-3-carboxamide]
≤ 1000 nM | C[C@H](NC(=O)c1ccnn1C1CC1)c1nc(-c2ccnc(C3CC3)c2)no1 [Compound 305, 2-cyclopropyl-N-[(1S)-1-[3-(2-cyclopropyl-4-pyridyl)-1,2,4-oxadiazol-5-yl]ethyl]pyrazole-3-carboxamide]
≤ 1000 nM | C[C@H](NC(=O)c1ccn(Cc2ccccc2)n1)c1nc(-c2ccnc(C3CC3)c2)no1 [Compound 306, 1-benzyl-N-[(1S)-1-[3-(2-cyclopropyl-4-pyridyl)-1,2,4-oxadiazol-5-yl]ethyl]pyrazole-3-carboxamide]
≤ 1000 nM | C[C@H](NC(=O)c1cc(C(F)(F)F)nn1C)c1nc(-c2ccnc(C3CCCC3)c2)no1 [Compound 307, (S)—N-(1-(3-(2-cyclopentylpyridin-4-yl)-1,2,4-oxadiazol-5-yl)ethyl)-1-methyl-3-(trifluoromethyl)-1H-pyrazole-5-carboxamide]
≤ 1000 nM | C[C@H](NC(=O)c1cc(C(F)F)nn1C)c1nc(-c2ccnc(C3CCCC3)c2)no1 [Compound 308, (S)—N-(1-(3-(2-cyclopentylpyridin-4-yl)-1,2,4-oxadiazol-5-yl)ethyl)-3-(difluoromethyl)-1-methyl-1H-pyrazole-5-carboxamide]
≤ 1000 nM | C[C@H](NC(=O)c1ccnn1CC1CC1)c1nc(-c2ccnc(C3CCCC3)c2)no1 [Compound 309, (S)—N-(1-(3-(2-cyclopentylpyridin-4-yl)-1,2,4-oxadiazol-5-yl)ethyl)-1-(cyclopropylmethyl)-1H-pyrazole-5-carboxamide]
≤ 1000 nM | C[C@H](NC(=O)c1ccnn1CC1CC1)c1nc(-c2ccnc(C3CC3)c2)no1 [Compound 310, 2-(cyclopropylmethyl)-N-[(1S)-1-[3-(2-cyclopropyl-4-pyridyl)-1,2,4-oxadiazol-5-yl]ethyl]pyrazole-3-carboxamide]

SMILES | IC50
C[C@H](NC(=O)OC(C)(C)C)c1nc(-c2ccnc(OC3CC(F)(F)C3)c2)no1 [Compound 293, tert-butyl (S)-(1-(3-(2-(3,3-difluorocyclobutoxy)pyridin-4-yl)-1,2,4-oxadiazol-5-yl)ethyl)carbamate] | ≥ 20000 nM
